According to patent publication US20250383357A1, “NOVEL FLUORESCENT DYES AND POLYMERS FROM DIHYDROPHENANTHRENE DERIVATIVES” (Beckman Coulter, Inc., priority 2022, published 2025):

Test: Fluorescence properties of DHP-cyanine dyes (excitation/absorbance and emission maxima, extinction coefficient)
Format: physicochemical
Details: for λem (emission wavelength) / λex (maximum excitation wavelength): Table 1
Description: The term “absorbance maxima” or “Abs λ max” or “max λ abs” refer to wavelength of maximum absorbance measured by UV Vis spectroscopy.

SMILES	λem (emission wavelength) [nm]	λex (maximum excitation wavelength) [nm]	Abs max (purified dye) [nm]	emission max (purified dye) [nm]	extinction coefficient (purified dye) [M⁻¹ cm⁻¹]
CC1(C)Cc2c3c(cc4c2C(C)(C)C(/C=C/C=C/C=C2\N(CCCCCC(=O)O)c5ccc(S(=O)(=O)O)cc5C2(C)C)=[N+]4CCCS(=O)(=O)O)S(=O)(=O)c2cc(S(=O)(=O)O)cc1c2-3 [Compound 36, 2-((l1-oxidaneyl)dioxo-l6-sulfaneyl)-7-((1E,3E)-5-((Z)-5-((l1-oxidaneyl)dioxo-l6-sulfaneyl)-1-(5-carboxypentyl)-3,3-dimethylindolin-2-ylidene)penta-1,3-dien-1-yl)-6-(3-((l1-oxidaneyl)dioxo-l6-sulfaneyl)propyl)-8,8,10,10-tetramethyl-9,10-dihydro-8H-thieno[2′,3′,4′,5′:4,5]phenanthro[2,1-b]pyrrol-6-ium 4,4-dioxide]	683	663	663	683	
CC1(C)C(/C=C/C=C/C=C2\N(CCCS(=O)(=O)O)c3ccc(C(=O)O)cc3C2(C)C)=[N+](CCCS(=O)(=O)O)c2cc3c4c(c21)CCc1cc(S(=O)(=O)[O-])cc(c1-4)S3(=O)=O [Compound 25, (Z)-2-((2E,4E)-5-(2-((l1-oxidaneyl)dioxo-l6-sulfaneyl)-6-(3-((l1-oxidaneyl)dioxo-l6-sulfaneyl)propyl)-8,8-dimethyl-4,4-dioxido-9,10-dihydro-8H-6l4-thieno[2′,3′,4′,5′:4,5]phenanthro[2,1-b]pyrrol-7-yl)penta-2,4-dien-1-ylidene)-1-(3-((l1-oxidaneyl)dioxo-l6-sulfaneyl)propyl)-3,3-dimethylindoline-5-carboxylic Acid]	686	666	666	686	150450
